The values below come from patent publication US20080306094A1 (priority 2005, published 2008).

The subject of one assay is Calu-6 tumour xenograft. Kind of assay: Calu-6 tumour xenograft in vivo solid tumour model. Conditions: once-daily oral, 28 days.
A further assay relates to HUVEC. In words: HUVEC assay, endothelial cell proliferation. It counts as cell-based. Conditions: Homo sapiens.

Where two headings read alike, the source gives them in different places.

For the compound `COc1cc2c(Oc3ccc4[nH]c(C)cc4c3F)ncnc2cc1OCCCN1CCCC1` [AZD2171, 4-(4-fluoro-2-methyl-1H-indol-5-yloxy)-6-methoxy-7-(3-(pyrrolidin-1-yl)propoxy)quinazoline], the “inhibition of growth of Calu-6 tumour xenograft” value is 49% with Calu-6 tumour xenograft (1.5 mg/kg/day, P<0.01 one-tailed t test); 69% in the assay with Calu-6 tumour xenograft (3 mg/kg/day, P<0.0001 one-tailed t test); 91% with Calu-6 tumour xenograft (6 mg/kg/day, P<0.0001 one-tailed t test). Besides, the IC50 is 0.4 ± 0.2 nM with HUVEC (VEGF-stimulated, read-out: IC50, VEGF-stimulated endothelial cell proliferation) and over 500 nM in the assay with HUVEC (basal, read-out: IC50, basal endothelial cell proliferation).
